Measurements: PubChem BioAssay AID2060626 (Molecular Pharmacology Branch, DTP, NCI, 2025)
“And” between values parts separate entries of the source, which are not always exact repeats. Equal entries are not always repeated. Each block holds one compound with its values, some of them ahead of it.

Tested on: 168753-222-R-J1-PDC complex spheroid viability
Test: Anticancer human tumor 168753-222-R-J1-PDC patient-derived bladder carcinoma cell line growth inhibition [CLK]
Conditions: for viability, T/C: stronger effect = lower value
Summary of the method: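 Patient-derived tumor cells grown as complex spheroids with HUVEC endothelial cells and mesenchymal stem cells, treated with drug combinations. Concentrations descend in half-log steps from near clinical Cmax, or from 10 microM if Cmax unknown.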

[1] = curve of first compound, second compound 0.0316 µM
[2] = curve of first compound, second compound 0.1 µM
[3] = curve of first compound, second compound 0.316 µM
[4] = curve of first compound, second compound 1 µM
[5] = curve of first compound, second compound 3.16 µM
[6] = curve of first compound, second compound 10 µM
[7] = second compound 0.0316 µM, first compound 0.0316 µM
[8] = second compound 0.0316 µM, first compound 0.1 µM
[9] = second compound 0.0316 µM, first compound 0.316 µM
[10] = second compound 0.0316 µM, first compound 1 µM
[11] = second compound 0.0316 µM, first compound 3.16 µM
[12] = second compound 0.0316 µM, first compound 10 µM
[13] = second compound 0.1 µM, first compound 0.0316 µM
[14] = second compound 0.1 µM, first compound 0.1 µM
[15] = second compound 0.1 µM, first compound 0.316 µM
[16] = second compound 0.1 µM, first compound 1 µM
[17] = second compound 0.1 µM, first compound 3.16 µM
[18] = second compound 0.1 µM, first compound 10 µM
[19] = second compound 0.316 µM, first compound 0.0316 µM
[20] = second compound 0.316 µM, first compound 0.1 µM
[21] = second compound 0.316 µM, first compound 0.316 µM
[22] = second compound 0.316 µM, first compound 1 µM
[23] = second compound 0.316 µM, first compound 3.16 µM
[24] = second compound 0.316 µM, first compound 10 µM
[25] = second compound 1 µM, first compound 0.0316 µM
[26] = second compound 1 µM, first compound 0.1 µM
[27] = second compound 1 µM, first compound 0.316 µM
[28] = second compound 1 µM, first compound 1 µM
[29] = second compound 1 µM, first compound 3.16 µM
[30] = second compound 1 µM, first compound 10 µM
[31] = second compound 3.16 µM, first compound 0.0316 µM
[32] = second compound 3.16 µM, first compound 0.1 µM
[33] = second compound 3.16 µM, first compound 0.316 µM
[34] = second compound 3.16 µM, first compound 1 µM
[35] = second compound 3.16 µM, first compound 3.16 µM
[36] = second compound 3.16 µM, first compound 10 µM
[37] = second compound 10 µM, first compound 0.0316 µM
[38] = second compound 10 µM, first compound 0.1 µM
[39] = second compound 10 µM, first compound 0.316 µM
[40] = second compound 10 µM, first compound 1 µM
[41] = second compound 10 µM, first compound 3.16 µM
[42] = second compound 10 µM, first compound 10 µM
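Note: viability measured after seven days of drug exposure.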
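Throughout, for viability, T/C: luminescence signal used as surrogate for viable cell amount; 100% = DMSO vehicle control wells.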

IC50 [1]: 2270 nM | IC50 [2]: 2160 nM | IC50 [3]: 203 nM | IC50 [4]: < 31.6 nM | IC50 [5]: < 31.6 nM | IC50 [6]: < 31.6 nM
SMILES: COC1C=CCC(C)C(C)S(=O)(=O)NC(=O)c2ccc3c(c2)N(CC2CCC21)CC1(CCCc2cc(Cl)ccc21)CO3 (stereo unspecified) + CNC(=O)c1ccc(Nc2nc(OC3CCCC3)c3c(-c4ccc5nc(C)oc5c4)c[nH]c3n2)c(OC)c1
viability, T/C [7]: 105% | viability, T/C [8]: 118% | viability, T/C [9]: 101% | viability, T/C [10]: 87.6% | viability, T/C [11]: 34.6% | viability, T/C [12]: 13.6% | viability, T/C [13]: 102% | viability, T/C [14]: 106% | viability, T/C [15]: 101% | viability, T/C [16]: 78.5% | viability, T/C [17]: 35.9% | viability, T/C [18]: 18.9% | viability, T/C [19]: 75.9% | viability, T/C [20]: 74% | viability, T/C [21]: 35% | viability, T/C [22]: 29.7% | viability, T/C [23]: 30% | viability, T/C [24]: 11.9% | viability, T/C [25]: 33% | viability, T/C [26]: 22.6% | viability, T/C [27]: 15.8% | viability, T/C [28]: 13.6% | viability, T/C [29]: 14.9% | viability, T/C [30]: 9.33% | viability, T/C [31]: 20.9% | viability, T/C [32]: 15.9% | viability, T/C [33]: 16.9% | viability, T/C [34]: 11.5% | viability, T/C [35]: 15.3% | viability, T/C [36]: 7.77% | viability, T/C [37]: 18% | viability, T/C [38]: 15.3% | viability, T/C [39]: 16.7% | viability, T/C [40]: 10.5% | viability, T/C [41]: 11.3% | viability, T/C [42]: 11.4%

SMILES: C=CC(=O)N1CCN(c2nc(=O)n(-c3c(C)ccnc3C(C)C)c3nc(-c4c(O)cccc4F)c(F)cc23)C(C)C1 (stereo unspecified) + CN1CCN(c2cc(C(=O)Nc3cc4cc(-c5cnn(C)c5)ccc4cn3)ccn2)CC1
IC50 [1]: > 10000 nM | IC50 [2]: 3770 nM | IC50 [3]: < 31.6 nM | IC50 [4]: < 31.6 nM | IC50 [5]: < 31.6 nM | IC50 [6]: < 31.6 nM | viability, T/C [7]: 96.6% | viability, T/C [8]: 107% | viability, T/C [9]: 111% | viability, T/C [10]: 133% | viability, T/C [11]: 82.8% | viability, T/C [12]: 100% | viability, T/C [13]: 79.4% | viability, T/C [14]: 84.5% | viability, T/C [15]: 55.5% | viability, T/C [16]: 75.3% | viability, T/C [17]: 52.5% | viability, T/C [18]: 32.1% | viability, T/C [19]: 16.2% | viability, T/C [20]: 13.4% | viability, T/C [21]: 14.2% | viability, T/C [22]: 13.8% | viability, T/C [23]: 12.8% | viability, T/C [24]: 15.2% | viability, T/C [25]: 0.29% | viability, T/C [26]: 0.48% | viability, T/C [27]: 1.79% | viability, T/C [28]: 0.27% | viability, T/C [29]: 0.3% | viability, T/C [30]: 0.2% | viability, T/C [31]: 1.43% | viability, T/C [32]: 0.16% | viability, T/C [33]: 0.55% | viability, T/C [34]: 0.11% | viability, T/C [35]: 1.89% | viability, T/C [36]: 0.22% | viability, T/C [37]: 0.21% | viability, T/C [38]: 0.2% | viability, T/C [39]: 0.6% | viability, T/C [40]: 0.18% | viability, T/C [41]: 0.4% | viability, T/C [42]: 0.57%

IC50 (curve of compound): 6.47 nM and 8.95 nM
SMILES: COc1c(OCCCN2CCOCC2)ccc2c3n(c(=NC(=O)c4cnc(N)nc4)nc12)CCN3
viability, T/C (compound 0.00316 µM): 59.7% and 74.2% | viability, T/C (compound 0.01 µM): 44.1% and 48.3% | viability, T/C (compound 0.0316 µM): 10.2% and 17% | viability, T/C (compound 0.1 µM): 13.6% and 15.3% | viability, T/C (compound 0.316 µM): 7.59% and 8.3% | viability, T/C (compound 1 µM): 2.26% and 3.63%
